# Values quoted from earlier work in publication PMC12580894 (Cancer Research Communications, 2025).
# Assays:
# [1] = tested on: patients with advanced solid tumours; conditions: berzosertib with cisplatin
# [2] = tested on: untreated advanced urothelial carcinoma
compound,measurement,setting,value
CNCc1ccc(-c2cc(-c3nc(-c4ccc(S(=O)(=O)C(C)C)cc4)cnc3N)on2)cc1 [berzosertib],patients with a confirmed PR,"[1]; despite prior platinum exposure, 31 patients",Two
same,most common AEs,[1]; phase I,hematologic in nature
same,DLTs observed,"[1]; phase I, 31 patients",a grade 3 hypersensitivity reaction and a grade 3 increase in alanine aminotransferase
same,Hematologic toxicity rates,[2]; GC plus berzosertib versus GC alone,higher
same,clinical benefit upon the addition of berzosertib,[2]; gemcitabine and cisplatin (GC) with or without berzosertib,no clinical benefit
